In ChEMBL document CHEMBL1201862, “PubChem BioAssay data set” (2004):
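Test compounds were applied to cells in 96-well plates for 48 hours at 5 doses. At the GI50, growth is halved.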 Calls of active or inactive are those of the source. No stated cut-off is given here; in the data, active = GI50 up to about 1.1 µM and inactive = higher.

Columns and labels:
Experiment in all cases: DTP human tumour cell line panel, 48 h
MCF7 = tested on: MCF7
A549 = tested on: A549
M14 = tested on: M14
T47D = tested on: T47D
COLO 205 = tested on: COLO 205
KM12 = tested on: KM12
DU-145 = tested on: DU-145
HCC 2998 = tested on: HCC 2998
OVCAR-4 = tested on: OVCAR-4
RPMI-8226 = tested on: RPMI-8226
ACHN = tested on: ACHN
SN12C = tested on: SN12C
A498 = tested on: A498
SNB-19 = tested on: SNB-19
LOX IMVI = tested on: LOX IMVI
Hs-578T = tested on: Hs-578T
NCI-H23 = tested on: NCI-H23
SK-MEL-5 = tested on: SK-MEL-5
HT-29 = tested on: HT-29
OVCAR-3 = tested on: OVCAR-3
EKVX = tested on: EKVX
CAKI-1 = tested on: CAKI-1
MDA-MB-231 = tested on: MDA-MB-231
K562 = tested on: K562
HL-60 = tested on: HL-60
CCRF-CEM = tested on: CCRF-CEM
UACC-257 = tested on: UACC-257
NCI-H460 = tested on: NCI-H460
U-251 = tested on: U-251
PC-3 = tested on: PC-3
Malme-3M = tested on: Malme-3M
SK-MEL-2 = tested on: SK-MEL-2
OVCAR-8 = tested on: OVCAR-8
NCI/ADR-RES = tested on: NCI/ADR-RES
SK-MEL-28 = tested on: SK-MEL-28
UO-31 = tested on: UO-31
NCI-H226 = tested on: NCI-H226
NCI-H522 = tested on: NCI-H522
SF-295 = tested on: SF-295
SK-OV-3 = tested on: SK-OV-3
BT-549 = tested on: BT-549
HCT-15 = tested on: HCT-15
786-0 = tested on: 786-0
OVCAR-5 = tested on: OVCAR-5
SF-268 = tested on: SF-268
HCT-116 = tested on: HCT-116
MOLT-4 = tested on: MOLT-4
SW-620 = tested on: SW-620
IGROV-1 = tested on: IGROV-1
RXF 393 = tested on: RXF 393
MDA-N = tested on: MDA-N
MDA-MB-435 = tested on: MDA-MB-435
HOP-62 = tested on: HOP-62
SF-539 = tested on: SF-539
TK-10 = tested on: TK-10
UACC-62 = tested on: UACC-62
SR = tested on: SR
HOP-92 = tested on: HOP-92
SNB-75 = tested on: SNB-75

SMILES: Cc1[nH]c2c(C)ccc(C)c2c1CC(=O)O
- GI50 (MCF7): 36.6 µM (inactive)
- GI50 (A549): 42.3 µM (inactive)
- GI50 (M14): 41 µM (inactive)
- GI50 (T47D): 41.8 µM (inactive)
- GI50 (COLO 205): 40 µM (inactive)
- GI50 (KM12): 32.2 µM (inactive)
- GI50 (DU-145): > 100 µM (inactive)
- GI50 (HCC 2998): 29.6 µM (inactive)
- GI50 (OVCAR-4): 38.1 µM (inactive)
- GI50 (RPMI-8226): 25.7 µM (inactive)
- GI50 (ACHN): 59.4 µM (inactive)
- GI50 (SN12C): 34.3 µM (inactive)
- GI50 (A498): 57 µM (inactive)
- GI50 (SNB-19): 92 µM (inactive)
- GI50 (LOX IMVI): 36.5 µM (inactive)
- GI50 (Hs-578T): 25.2 µM (inactive)
- GI50 (NCI-H23): 51.8 µM (inactive)
- GI50 (SK-MEL-5): 48.9 µM (inactive)
- GI50 (HT-29): 43.3 µM (inactive)
- GI50 (OVCAR-3): 31.3 µM (inactive)
- GI50 (EKVX): 39 µM (inactive)
- GI50 (CAKI-1): 43 µM (inactive)
- GI50 (MDA-MB-231): 13 µM (inactive)
- GI50 (K562): 34.4 µM (inactive)
- GI50 (HL-60): 5.43 µM (inactive)
- GI50 (CCRF-CEM): 20 µM (inactive)
- GI50 (UACC-257): 30.5 µM (inactive)
- GI50 (NCI-H460): 31 µM (inactive)
- GI50 (U-251): 35.9 µM (inactive)
- GI50 (PC-3): 22 µM (inactive)
- GI50 (Malme-3M): 37.7 µM (inactive)
- GI50 (SK-MEL-2): 18.2 µM (inactive)
- GI50 (OVCAR-8): 32.5 µM (inactive)
- GI50 (NCI/ADR-RES): 54.6 µM (inactive)
- GI50 (SK-MEL-28): 61.8 µM (inactive)
- GI50 (UO-31): 37 µM (inactive)
- GI50 (NCI-H226): 33.7 µM (inactive)
- GI50 (NCI-H522): 24.2 µM (inactive)
- GI50 (SF-295): 50.1 µM (inactive)
- GI50 (SK-OV-3): > 100 µM (inactive)
- GI50 (BT-549): 54.6 µM (inactive)
- GI50 (HCT-15): 53.5 µM
- GI50 (786-0): 43.9 µM (inactive)
- GI50 (OVCAR-5): > 100 µM (inactive)
- GI50 (SF-268): 44.2 µM (inactive)
- GI50 (HCT-116): 38.5 µM (inactive)
- GI50 (MOLT-4): 26.5 µM (inactive)
- GI50 (SW-620): 42.9 µM (inactive)
- GI50 (IGROV-1): 17.6 µM (inactive)
- GI50 (RXF 393): > 100 µM (inactive)
- GI50 (MDA-N): 31.5 µM (inactive)
- GI50 (MDA-MB-435): 42.3 µM (inactive)
- GI50 (HOP-62): 81.5 µM (inactive)
- GI50 (SF-539): 94.2 µM (inactive)
- GI50 (TK-10): 57 µM (inactive)
- GI50 (UACC-62): 43.1 µM (inactive)

SMILES: O=C1Cc2c([nH]c3c(Cl)cccc23)-c2ccccc2N1
- GI50 (MCF7): > 100 µM (inactive)
- GI50 (SR): > 100 µM (inactive)
- GI50 (A549): > 100 µM (inactive)
- GI50 (M14): > 100 µM (inactive)
- GI50 (T47D): > 100 µM (inactive)
- GI50 (COLO 205): > 100 µM (inactive)
- GI50 (KM12): > 100 µM (inactive)
- GI50 (DU-145): > 100 µM (inactive)
- GI50 (HOP-92): 95.7 µM (inactive)
- GI50 (OVCAR-4): > 100 µM (inactive)
- GI50 (RPMI-8226): > 100 µM (inactive)
- GI50 (ACHN): > 100 µM (inactive)
- GI50 (SN12C): > 100 µM (inactive)
- GI50 (A498): > 100 µM (inactive)
- GI50 (SNB-19): > 100 µM (inactive)
- GI50 (LOX IMVI): > 100 µM (inactive)
- GI50 (Hs-578T): 87.3 µM (inactive)
- GI50 (NCI-H23): > 100 µM (inactive)
- GI50 (SK-MEL-5): > 100 µM (inactive)
- GI50 (HT-29): > 100 µM (inactive)
- GI50 (OVCAR-3): > 100 µM (inactive)
- GI50 (MDA-MB-231): > 100 µM (inactive)
- GI50 (K562): > 100 µM (inactive)
- GI50 (HL-60): > 100 µM (inactive)
- GI50 (SNB-75): > 100 µM (inactive)
- GI50 (CCRF-CEM): > 100 µM (inactive)
- GI50 (NCI-H460): > 100 µM (inactive)
- GI50 (U-251): > 100 µM (inactive)
- GI50 (PC-3): > 100 µM (inactive)
- GI50 (Malme-3M): > 100 µM (inactive)
- GI50 (OVCAR-8): > 100 µM (inactive)
- GI50 (SK-MEL-28): > 100 µM (inactive)
- GI50 (UO-31): > 100 µM (inactive)
- GI50 (NCI-H226): > 100 µM (inactive)
- GI50 (NCI-H522): > 100 µM (inactive)
- GI50 (SF-295): > 100 µM (inactive)
- GI50 (SK-OV-3): > 100 µM (inactive)
- GI50 (BT-549): > 100 µM (inactive)
- GI50 (HCT-15): > 100 µM
- GI50 (786-0): > 100 µM (inactive)
- GI50 (OVCAR-5): > 100 µM (inactive)
- GI50 (SF-268): > 100 µM (inactive)
- GI50 (HCT-116): > 100 µM (inactive)
- GI50 (MOLT-4): > 100 µM (inactive)
- GI50 (SW-620): > 100 µM (inactive)
- GI50 (IGROV-1): > 100 µM (inactive)
- GI50 (MDA-N): > 100 µM (inactive)
- GI50 (MDA-MB-435): > 100 µM (inactive)
- GI50 (HOP-62): > 100 µM (inactive)
- GI50 (SF-539): > 100 µM (inactive)
- GI50 (TK-10): > 100 µM (inactive)
- GI50 (UACC-62): > 100 µM (inactive)

SMILES: CN(C)/N=N/c1nc2c(c(=O)n(C)c(=O)n2C)n1CC(O)CO (configuration not stated)
- GI50 (MCF7): 10.6 µM (inactive)
- GI50 (A549): > 100 µM (inactive)
- GI50 (M14): > 100 µM (inactive)
- GI50 (T47D): 38.7 µM (inactive)
- GI50 (COLO 205): > 100 µM (inactive)
- GI50 (KM12): > 100 µM (inactive)
- GI50 (DU-145): > 100 µM (inactive)
- GI50 (HCC 2998): > 100 µM (inactive)
- GI50 (OVCAR-4): > 100 µM (inactive)
- GI50 (RPMI-8226): > 100 µM (inactive)
- GI50 (ACHN): > 100 µM (inactive)
- GI50 (SN12C): > 100 µM (inactive)
- GI50 (SNB-19): > 100 µM (inactive)
- GI50 (Hs-578T): > 100 µM (inactive)
- GI50 (NCI-H23): > 100 µM (inactive)
- GI50 (SK-MEL-5): > 100 µM (inactive)
- GI50 (HT-29): > 100 µM (inactive)
- GI50 (OVCAR-3): > 100 µM (inactive)
- GI50 (EKVX): > 100 µM (inactive)
- GI50 (CAKI-1): > 100 µM (inactive)
- GI50 (MDA-MB-231): > 100 µM (inactive)
- GI50 (K562): > 100 µM (inactive)
- GI50 (HL-60): > 100 µM (inactive)
- GI50 (SNB-75): > 100 µM (inactive)
- GI50 (CCRF-CEM): > 100 µM (inactive)
- GI50 (UACC-257): > 100 µM (inactive)
- GI50 (NCI-H460): > 100 µM (inactive)
- GI50 (U-251): > 100 µM (inactive)
- GI50 (PC-3): > 100 µM (inactive)
- GI50 (Malme-3M): > 100 µM (inactive)
- GI50 (SK-MEL-2): > 100 µM (inactive)
- GI50 (OVCAR-8): > 100 µM (inactive)
- GI50 (NCI/ADR-RES): > 100 µM (inactive)
- GI50 (SK-MEL-28): > 100 µM (inactive)
- GI50 (UO-31): > 100 µM (inactive)
- GI50 (NCI-H226): > 100 µM (inactive)
- GI50 (NCI-H522): > 100 µM (inactive)
- GI50 (SF-295): > 100 µM (inactive)
- GI50 (SK-OV-3): > 100 µM (inactive)
- GI50 (BT-549): > 100 µM (inactive)
- GI50 (HCT-15): > 100 µM
- GI50 (786-0): > 100 µM (inactive)
- GI50 (OVCAR-5): > 100 µM (inactive)
- GI50 (SF-268): > 100 µM (inactive)
- GI50 (HCT-116): > 100 µM (inactive)
- GI50 (MOLT-4): > 100 µM (inactive)
- GI50 (SW-620): > 100 µM (inactive)
- GI50 (IGROV-1): > 100 µM (inactive)
- GI50 (RXF 393): > 100 µM (inactive)
- GI50 (MDA-N): > 100 µM (inactive)
- GI50 (MDA-MB-435): > 100 µM (inactive)
- GI50 (HOP-62): > 100 µM (inactive)
- GI50 (TK-10): > 100 µM (inactive)
- GI50 (UACC-62): > 100 µM (inactive)
